{"source": "patent US20230250109A1", "about": "“MACROCYCLIC ETHER CONTAINING INDOLE DERIVATIVES AS INHIBITORS OF MCL-1” (Janssen Pharmaceutica NV, priority 2020, published 2023)", "key": {"[1]": {"biological_target": "Myeloid Cell Leukemia 1 (Mcl-1) (Homo sapiens, UniProt Q07820)", "sequence (Q07820 whole entry)": "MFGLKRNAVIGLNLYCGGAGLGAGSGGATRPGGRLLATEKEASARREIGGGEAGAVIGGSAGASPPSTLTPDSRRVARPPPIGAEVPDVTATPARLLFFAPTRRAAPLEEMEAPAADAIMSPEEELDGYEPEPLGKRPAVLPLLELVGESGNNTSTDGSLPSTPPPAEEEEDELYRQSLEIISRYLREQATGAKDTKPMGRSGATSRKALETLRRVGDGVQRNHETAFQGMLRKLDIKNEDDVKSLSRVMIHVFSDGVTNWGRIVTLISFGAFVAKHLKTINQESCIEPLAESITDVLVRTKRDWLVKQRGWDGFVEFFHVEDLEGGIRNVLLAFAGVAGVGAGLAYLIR", "assay": "Terbium labeled Mcl-1 HTRF binding assay (displacement of Cy5-labeled BIM BH3 peptide)", "details": "25 pM Tb-Mcl-1, 8 nM Cy5 Bim peptide, Ki=IC50/(1+[L]/Kd), [L]=8 nM, Kd=10 nM, 60 min at room temperature, read-out: Tb-MCL1 Ki", "experimental": "Terbium labeled Myeloid Cell Leukemia 1 (Mcl-1) homogeneous time-resolved fluorescence (HTRF) binding assay utilizing the BIM BH3 peptide (H2N—(C/Cy5Mal) WIAQELRRIGDEFN-OH) as the binding partner for Mcl-1.\nThis assay evaluated inhibition of the BH3 domain: Mcl-1 interaction by measuring the displacement of Cy5-labeled BIM BH3 peptide (H2N—(C/Cy5Mal) WIAQELRRIGDEFN-OH) in the HTRF assay format.\nThe following assay and stock buffers were prepared for use in the assay: (a) Stock buffer: 10 mM Tris-HCl, pH=7.5+150 mM NaCl, filtered, sterilized, and stored at 4° C.; and (b) 1× assay buffer, where the following ingredients were added fresh to stock buffer: 2 mM dithiothreitol (DTT), 0.0025% Tween-20, 0.1 mg/mL bovine serum albumin (BSA). The 1×Tb-Mcl-1+Cy5 Bim peptide solution was prepared by diluting the protein stock solution using the 1×assay buffer (b) to 25 pM Tb-Mcl-1 and 8 nM Cy5 Bim peptide.\nUsing the Acoustic ECHO, 100 nL of 100×test compound(s) were dispensed into individual wells of a white 384-well Perkin Elmer Proxiplate, for a final compound concentration of 1×and final DMSO concentration of 1%. Inhibitor control and neutral control (NC, 100 nL of 100% DMSO) were stamped into columns 23 and 24 of assay plate, respectively. Into each well of the plate was then dispensed 10 μL of the 1× Tb-Mcl-1+Cy5 Bim peptide solution. The plate was centrifuged with a cover plate at 1000 rpm for 1 minute, then incubated for 60 minutes at room temperature with plates covered. The TR-FRET signal was read on an BMG PHERAStar FSX MicroPlate Reader at room temperature using the HTRF optic module (HTRF: excitation: 337 nm, light source: laser, emission A: 665 nm, emission B: 620 nm, integration start: 60 μs, integration time: 400 μs).\nThe BMG PHERAStar FSX MicroPlate Reader was used to measure fluorescence intensity at two emission wavelengths—665 nm and 620 nm—and report relative fluorescence units (RFU) for both emissions, as well as a ratio of the emissions (665 nm/620 nm)*10,000. The RFU values were normalized to percent inhibition as follows:\n35% inhibition=(((NC−IC)−(compound−IC))/(NC−IC))*100\nwhere IC (inhibitor control, low signal)=mean signal of 1× Tb-MCl-1+Cy5 Bim peptide+ inhibitor control or 100% inhibition of Mcl-1; NC (neutral control, high signal)=mean signal 1× Tb-MCl-1+Cy5 Bim peptide with DMSO only or 0% inhibition An 11-point dose response curve was generated to determine IC50 values (using GenData) based on the following equation:\nY=Bottom+(Top−Bottom)/(1+10^((log IC50−X)*HillSlope))\nwhere Y=% inhibition in the presence of X inhibitor concentration; Top=100% inhibition derived from the IC (mean signal of Mcl-1+ inhibitor control); Bottom=0% inhibition derived from the NC (mean signal of Mcl-1+ DMSO); Hillslope=Hill coefficient; and IC50=concentration of compound with 50% inhibition in relation to top/neutral control (NC)."}, "[2]": {"system": "MOLP-8 human multiple myeloma cell line", "assay": "Caspase-Glo 3/7 apoptosis induction assay in MOLP-8 cells", "type": "cell-based", "details": "2 hours at 37° C., caspase-3/7 luminescence, averaged over all runs on all batches, read-out: MOLP8 Caspase-Glo AC50", "description": "MCL-1 is a regulator of apoptosis and is highly over-expressed in tumor cells that escape cell death. The assay evaluates the cellular potency of small-molecule compounds targeting regulators of the apoptosis pathway, primarily MCL-1, Bfl-1, Bcl-2, and other proteins of the Bcl-2 family. Protein-protein inhibitors disrupting the interaction of anti-apoptotic regulators with BH3-domain proteins initiate apoptosis.\nThe Caspase-Glo® 3/7 Assay is a luminescent assay that measures caspase-3 and -7 activities in purified enzyme preparations or cultures of adherent or suspension cells. The assay provides a proluminescent caspase-3/7 substrate, which contains the tetrapeptide sequence DEVD. This substrate is cleaved to release aminoluciferin, a substrate of luciferase used in the production of light. Addition of the single Caspase-Glo® 3/7 Reagent in an “add-mix-measure” format results in cell lysis, followed by caspase cleavage of the substrate and generation of a “glow-type” luminescent signal. This assay uses the MOLP-8 human multiple myeloma cell line, which is sensitive to MCL-1 inhibition.\n• Perkin Elmer Envision • Multidrop 384 and small volume dispensing cassettes • Centrifuge • Countess automated cell counter • Countess counting chamber slides • Assay plate: ProxiPlate-384 Plus, White 384-shallow well Microplate • Sealing tape: Topseal A plus • T175 culture flask\nCell cultures were maintained between 0.2 and 2.0×10^6 cells/mL. The cells were harvested by collection in 50 mL conical tubes. The cells were then pelleted at 500 g for 5 mins before removing supernatant and resuspension in fresh pre-warmed culture medium. The cells were counted and diluted as needed.\nThe assay reagent was prepared by transferring the buffer solution to the substrate vial and mixing. The solution may be stored for up to 1 week at 4° C. with negligible loss of signal.\nCompounds were delivered in assay-ready plates (Proxiplate) and stored at −20° C. Assays always include 1 reference compound plate containing reference compounds. The plates were spotted with 40 nL of compounds (0.5% DMSO final in cells; serial dilution; […] highest conc. 1/3 dilution, 10 doses, duplicates). The compounds were used at room temperature and 4 μL of pre-warmed media was added to all wells except column 2 and 23. The negative control was prepared by adding 1% DMSO in media. The positive control was prepared by adding the appropriate positive control compound in final concentration of […] in media. The plate was prepared by adding 4 μL negative control to column 23, 4 μL positive control to column 2 and 4 μL cell suspension to all wells in the plate. The plate with cells was then incubated at 37° C. for 2 hours. The assay signal reagent is the Caspase-Glo solution described above, and 8 μL was added to all wells. The plates were then sealed and measured after 30 minutes.\nThe activity of a test compound was calculated as percent change in apoptosis induction as follows: […]"}}, "note": "Like-named read-outs stand apart in the source and are kept apart here."}
{"compound": "Cc1c2c(nn1C)COCc1cc(n(C)n1)CCc1cc(c3ccccc3c1)OCCCc1c(C(=O)O)n(C)c3c-2c(Cl)ccc13", "note": "(single isomer, unassigned) [Compound 1]", "values": [{"measurement": "Ki", "setting": "[1]", "value": 0.047, "unit": "nM"}, {"measurement": "AC50", "setting": "[2]", "value": 83.3, "unit": "nM"}]}
{"compound": "Cc1c2c(nn1C)COCc1cc(n(C)n1)CCc1cc(c3ccccc3c1)OCCCc1c(C(=O)O)n(C)c3c-2c(Cl)ccc13", "note": "(single isomer, unassigned) [Compound 2]", "values": [{"measurement": "Ki", "setting": "[1]", "value": 0.444, "unit": "nM"}, {"measurement": "AC50", "setting": "[2]", "value": 954, "unit": "nM"}]}
{"compound": "Cc1c2c(nn1C)COCc1cc(n(C)n1)CSc1cc(c3ccccc3c1)OCCCc1c(C(=O)O)n(C)c3c-2c(Cl)ccc13", "note": "(single isomer, unassigned) [Compound 5]", "values": [{"measurement": "Ki", "setting": "[1]", "value": 0.057, "unit": "nM"}, {"measurement": "AC50", "setting": "[2]", "value": 83.7, "unit": "nM"}]}
{"compound": "Cc1c2c(nn1C)COCc1cc(n(C)n1)CSc1cc(c3ccccc3c1)OCCCc1c(C(=O)O)n(C)c3c-2c(Cl)ccc13", "note": "(single isomer, unassigned) [Compound 6]", "values": [{"measurement": "Ki", "setting": "[1]", "value": 11.7, "unit": "nM"}, {"measurement": "AC50", "setting": "[2]", "value": 6640, "unit": "nM"}]}
{"compound": "CCc1c2c(nn1C)COCc1cc(n(C)n1)CSc1cc(c3ccccc3c1)OCCCc1c(C(=O)O)n(C)c3c-2c(Cl)ccc13", "note": "(single isomer, unassigned) [Compound 7]", "values": [{"measurement": "melting point", "value": 269.16, "unit": "°C"}, {"measurement": "Ki", "setting": "[1]", "value": 0.055, "unit": "nM"}, {"measurement": "AC50", "setting": "[2]", "value": 83.7, "unit": "nM"}]}
{"compound": "CCc1c2c(nn1C)COCc1cc(n(C)n1)CSc1cc(c3ccccc3c1)OCCCc1c(C(=O)O)n(C)c3c-2c(Cl)ccc13", "note": "(single isomer, unassigned) [Compound 8]", "values": [{"measurement": "melting point", "value": 264.21, "unit": "°C"}, {"measurement": "Ki", "setting": "[1]", "value": 8.12, "unit": "nM"}, {"measurement": "AC50", "setting": "[2]", "value": 5380, "unit": "nM"}]}
{"compound": "Cc1c2c(nn1C)C(C)OCc1cc(n(C)n1)CSc1cc(c3ccccc3c1)OCCCc1c(C(=O)O)n(C)c3c-2c(Cl)ccc13", "note": "(single isomer, unassigned) [Compound 9]", "values": [{"measurement": "Ki", "setting": "[1]", "value": 0.241, "unit": "nM"}, {"measurement": "AC50", "setting": "[2]", "value": 246, "unit": "nM"}]}
{"compound": "Cc1c2c(nn1C)C(C)OCc1cc(n(C)n1)CSc1cc(c3ccccc3c1)OCCCc1c(C(=O)O)n(C)c3c-2c(Cl)ccc13", "note": "(single isomer, unassigned) [Compound 10]", "values": [{"measurement": "Ki", "setting": "[1]", "value": 19.8, "unit": "nM"}, {"measurement": "AC50", "setting": "[2]", "value": 14700, "unit": "nM"}]}
{"compound": "Cc1c2c(nn1C)C(C)OCc1cc(n(C)n1)CSc1cc(c3ccccc3c1)OCCCc1c(C(=O)O)n(C)c3c-2c(Cl)ccc13", "note": "(single isomer, unassigned) [Compound 11]", "values": [{"measurement": "Ki", "setting": "[1]", "value": 33.1, "unit": "nM"}, {"measurement": "AC50", "setting": "[2]", "value": 18100, "unit": "nM"}]}
{"compound": "Cc1c2c(nn1C)C(C)OCc1cc(n(C)n1)CSc1cc(c3ccccc3c1)OCCCc1c(C(=O)O)n(C)c3c-2c(Cl)ccc13", "note": "(single isomer, unassigned) [Compound 12]", "values": [{"measurement": "Ki", "setting": "[1]", "value": 0.036, "unit": "nM"}, {"measurement": "AC50", "setting": "[2]", "value": 59.4, "unit": "nM"}]}
{"compound": "Cc1c2c(nn1C)COCc1cc(n[nH]1)CSc1cc(c3ccccc3c1)OCCCc1c(C(=O)O)n(C)c3c-2c(Cl)ccc13", "note": "(single isomer, unassigned) [Compound 13]", "values": [{"measurement": "Ki", "setting": "[1]", "value": 0.128, "unit": "nM"}, {"measurement": "AC50", "setting": "[2]", "value": 411, "unit": "nM"}]}
{"compound": "Cc1c2c(nn1C)COCc1cc(n[nH]1)CSc1cc(c3ccccc3c1)OCCCc1c(C(=O)O)n(C)c3c-2c(Cl)ccc13", "note": "(single isomer, unassigned) [Compound 14]", "values": [{"measurement": "Ki", "setting": "[1]", "value": 21.6, "unit": "nM"}, {"measurement": "AC50", "setting": "[2]", "value": 18000, "unit": "nM"}]}
{"compound": "Cc1c2c(nn1C)COCc1cc(nn1CCN(C)C)CSc1cc(c3ccccc3c1)OCCCc1c(C(=O)O)n(C)c3c-2c(Cl)ccc13", "note": "(single isomer, unassigned) [Compound 15]", "values": [{"measurement": "Ki", "setting": "[1]", "value": 0.111, "unit": "nM"}, {"measurement": "AC50", "setting": "[2]; Homo sapiens, MOLP-8, 2 h", "value": 388, "unit": "nM"}]}
{"compound": "Cc1c2c(nn1C)COCc1cc(n(CCN(C)C)n1)CSc1cc(c3ccccc3c1)OCCCc1c(C(=O)O)n(C)c3c-2c(Cl)ccc13", "note": "(single isomer, unassigned) [Compound 16]", "values": [{"measurement": "Ki", "setting": "[1]", "value": 0.072, "unit": "nM"}, {"measurement": "AC50", "setting": "[2]; Homo sapiens, MOLP-8, 2 h", "value": 185, "unit": "nM"}]}
{"compound": "COCCOCCn1nc(C)c2c1COCc1cc(n(C)n1)CCc1cc(c3ccc(F)cc3c1)OCCCc1c(C(=O)O)n(C)c3c-2c(Cl)ccc13", "note": "(single isomer, unassigned) [Compound 17]", "values": [{"measurement": "Ki", "setting": "[1]", "value": 0.025, "unit": "nM"}, {"measurement": "AC50", "setting": "[2]", "value": 7.4, "unit": "nM"}]}
{"compound": "COCCOCCn1nc2c(c1C)-c1c(Cl)ccc3c(c(C(=O)O)n(C)c13)CCCOc1cc(cc3cc(F)ccc13)CCc1cc(nn1C)COC2", "note": "(single isomer, unassigned) [Compound 18]", "values": [{"measurement": "Ki", "setting": "[1]", "value": 0.02, "unit": "nM"}, {"measurement": "AC50", "setting": "[2]", "value": 17.6, "unit": "nM"}]}
{"compound": "COCCOCCn1nc(C)c2c1COCc1cc(n(C)n1)CCc1cc(c3ccc(F)cc3c1)OCCCc1c(C(=O)O)n(C)c3c-2c(Cl)ccc13", "note": "(single isomer, unassigned) [Compound 19]", "values": [{"measurement": "Ki", "setting": "[1]", "value": 1.34, "unit": "nM"}, {"measurement": "AC50", "setting": "[2]", "value": 626, "unit": "nM"}]}
{"compound": "COCCOCCn1nc2c(c1C)-c1c(Cl)ccc3c(c(C(=O)O)n(C)c13)CCCOc1cc(cc3cc(F)ccc13)CCc1cc(nn1C)COC2", "note": "(single isomer, unassigned) [Compound 20]", "values": [{"measurement": "Ki", "setting": "[1]", "value": 4.14, "unit": "nM"}, {"measurement": "AC50", "setting": "[2]", "value": 3450, "unit": "nM"}]}
